Earlier results on 3 compounds are cited in patent publication US20160015722A1, “TREATMENT OF ENDOMETRIOSIS” (priority 2014, published 2016).

The test system of this data set is FSH (Follicle Stimulating Hormone) and LH (Leutinizing Hormone) release from the pituitary. The following applies: for FSH and LH release from the pituitary gland: previous hormonal treatments of endometriosis.

For `C[C@]12CC[C@H]3[C@@H](CCC4=CC(=O)CC[C@@H]43)[C@@H]1CC[C@@H]2O` [Nandrolone, nandrolone], under “nandrolone used alone”, the “FSH and LH release from the pituitary” value was “suppresses”.
As for `C#C[C@]1(O)CC[C@H]2[C@@H]3CCC4=Cc5oncc5C[C@]4(C)[C@H]3CC[C@@]21C` [danazol], the “FSH and LH release from the pituitary gland” value is on record as “suppress”.
Take luprolide acetate: the “FSH and LH release from the pituitary gland” value is recorded as “suppress”.
